Laboratory results from the NIST ThermoML archive (doi:10.1016/j.jct.2019.105891).

What was measured:
[1] = refractive index (Na D-line) (dimensionless); settings: 100 kPa, Liquid, Standard Abbe refractometry
[2] = 100 kPa, Liquid, Falling or rolling sphere viscometry
[3] = refractive index (Na D-line) (dimensionless); xn = mol fraction of the nth substance listed; settings: 100 kPa, Liquid, Standard Abbe refractometry
[4] = xn = mol fraction of the nth substance listed; settings: 100 kPa, Liquid, Falling or rolling sphere viscometry

CCCCn1cc[n+](C)c1.F[B-](F)(F)F [1-butyl-3-methylimidazolium tetrafluoroborate]
Settings	refractive index, 293.15 K	refractive index, 303.15 K	refractive index, 313.15 K	refractive index, 323.15 K	viscosity, 293.15 K [mPa·s]	viscosity, 303.15 K [mPa·s]	viscosity, 313.15 K [mPa·s]	viscosity, 323.15 K [mPa·s]
[1]	1.42144	1.41913	1.41621	1.4133	–	–	–	–
[2]	–	–	–	–	135.7	80.4	51.4	34.92

CCCCn1cc[n+](C)c1.F[B-](F)(F)F [1-butyl-3-methylimidazolium tetrafluoroborate] + Nc1ccccc1
x1 = 1
Settings	refractive index, 293.15 K	refractive index, 303.15 K	refractive index, 313.15 K	refractive index, 323.15 K	viscosity, 293.15 K [mPa·s]	viscosity, 303.15 K [mPa·s]	viscosity, 313.15 K [mPa·s]	viscosity, 323.15 K [mPa·s]
[3]	1.42144	1.41913	1.41621	1.4133	–	–	–	–
[4]	–	–	–	–	135.7	80.4	51.4	34.92

CCn1cc[n+](C)c1.F[B-](F)(F)F [1-ethyl-3-methylimidazolium tetrafluoroborate]
Settings	refractive index, 293.15 K	refractive index, 303.15 K	refractive index, 313.15 K	refractive index, 323.15 K	viscosity, 293.15 K [mPa·s]	viscosity, 303.15 K [mPa·s]	viscosity, 313.15 K [mPa·s]	viscosity, 323.15 K [mPa·s]
[1]	1.41509	1.41117	1.40802	1.40512	–	–	–	–
[2]	–	–	–	–	45.69	30.54	21.82	16.42

CCn1cc[n+](C)c1.F[B-](F)(F)F [1-ethyl-3-methylimidazolium tetrafluoroborate] + Nc1ccccc1
x1 = 1
Settings	refractive index, 293.15 K	refractive index, 303.15 K	refractive index, 313.15 K	refractive index, 323.15 K	viscosity, 293.15 K [mPa·s]	viscosity, 303.15 K [mPa·s]	viscosity, 313.15 K [mPa·s]	viscosity, 323.15 K [mPa·s]
[3]	1.41509	1.41117	1.40802	1.40512	–	–	–	–
[4]	–	–	–	–	45.69	30.54	21.82	16.42

Nc1ccccc1 [aniline]
Settings	refractive index, 293.15 K	refractive index, 303.15 K	refractive index, 313.15 K	refractive index, 323.15 K	viscosity, 293.15 K [mPa·s]	viscosity, 303.15 K [mPa·s]	viscosity, 313.15 K [mPa·s]	viscosity, 323.15 K [mPa·s]
[1]	1.58481	1.58152	1.57823	1.57494	–	–	–	–
[2]	–	–	–	–	4.38	3.24	2.47	1.95

Nc1ccccc1 [aniline] + CCCCn1cc[n+](C)c1.F[B-](F)(F)F
Settings	refractive index, [3]	viscosity, [4] [mPa·s]
293.15 K, x2 = 0	1.58481	4.38
293.15 K, x2 = 0.1001	1.55273	7.66
293.15 K, x2 = 0.4991	1.47256	36.82
293.15 K, x2 = 0.6032	1.45814	50.14
293.15 K, x2 = 0.7021	1.44443	65.33
293.15 K, x2 = 0.7907	1.43496	81.22
293.15 K, x2 = 0.9026	1.42669	104.99
303.15 K, x2 = 0	1.58152	3.24
303.15 K, x2 = 0.1001	1.54951	5.46
303.15 K, x2 = 0.4991	1.46852	22.05
303.15 K, x2 = 0.6032	1.4544	31.1
303.15 K, x2 = 0.7021	1.44151	40.82
303.15 K, x2 = 0.7907	1.43264	50.78
303.15 K, x2 = 0.9026	1.42433	66.19
313.15 K, x2 = 0	1.57823	2.47
313.15 K, x2 = 0.1001	1.54532	4.04
313.15 K, x2 = 0.4991	1.46448	14.67
313.15 K, x2 = 0.6032	1.45067	20.79
313.15 K, x2 = 0.7021	1.43859	26.92
313.15 K, x2 = 0.7907	1.43031	33.47
313.15 K, x2 = 0.9026	1.42197	42.66
323.15 K, x2 = 0	1.57494	1.95
323.15 K, x2 = 0.1001	1.54114	3.08
323.15 K, x2 = 0.2028	1.51499	4.56
323.15 K, x2 = 0.4991	1.46044	10.52
323.15 K, x2 = 0.6032	1.44694	14.73
323.15 K, x2 = 0.7021	1.43567	18.58
323.15 K, x2 = 0.7907	1.42799	23.06
323.15 K, x2 = 0.9026	1.41961	29.65
